30 compounds from patent publication US9296694B2, “Azacyclic compounds” (ACADIA Pharmaceuticals Inc., priority 2000, dated 2016) can be followed below.

“Also recorded” adds a separate entry of the source.

For one experiment, the system named is DOI-induced head twitches in mice. Nature of the experiment: Observation for head twitches in DOI-treated mice. It counts as in vivo. The following applies: mice; 2.5 mg/kg, i.p., 15 min; score 0-6. From the text: (§1) Instruments) were used for rat experiments (details on startle apparatus and measures, see Male Non-Swiss Albino mice and male Sprague-Dawley rats (Harlan Sprague-Dawley) were housed (4 mice/cage; 2 rats/cage) in rooms with temperature and humidity controlled and water and food (Harlan Teklad) freely available. Mice were kept on a 12-hr light:dark cycle, whereas rats were kept on a 12-hr reverse light:dark cycle. For locomotor and observation experiments in mice, plastic 20×20×30 cm activity cages were equipped with photocell beams (AccuScan Instruments). Startle chambers (San Diego Instruments) were used for rat experiments (for details on startle apparatus and measures, see Mansbach et al., (1988) Psychopharmacology 94:507-14).
Mice were treated with 2.5 mg/kg DOI i.p. Five min later, mice were treated with AC-90179 s.c. and placed into activity cages. Ten min later, mice were observed using a repeated sampling technique. […] Each dose combination was tested in a separate group of animals (n=8) and the experimenter was blind to drug conditions. Head twitch scores were averaged followed by analysis of variance (ANOVA) and post-hoc Dunnett's t-test comparisons.
The effect of various compounds on head twitch behavior in mice treated with DOI was observed as described in Example 139. Animals received 0.1-30 mg/kg of the compound indicated via subcutaneous injection. MED indicates the minimum effective dose at which a statistically significant reduction in head twitching score (described above) was observed. MED=minimum effective dose in vivo.
Turning to `COc1cc(CC(C)N)c(OC)cc1I` (stereo not drawn) [DOI, reference compound], the “average head twitch score” value is 2.6 (±0.3, S.E.M.).

Still in this experiment, the particulars now being: statistically significant reduction in head twitching score; DOI-treated mice; 0.1-30 mg/kg subcutaneous injection.
On to `COc1ccc(CC(=O)N(Cc2ccc(C)cc2)C2CCN(Cc3ccccc3)CC2)cc1.Cl` [Compound 26HCH17, N-((4-Methylphenyl)methyl)-N-(1-(phenylmethyl)piperidin-4-yl)-4-methoxyphenylacetamide hydrochloride], for which the “MED (minimum effective dose in vivo)” value came out at 30 mg/kg.

In the case of `COc1ccc(CC(=O)N(Cc2ccc(C)cc2)C2CCN(CC3CCCCC3)CC2)cc1` [Compound 42ELH45, 2-(4-Methoxyphenyl)-N-(4-methylbenzyl)-N-(1-cyclohexylmethylpiperidin-4-yl)acetamide], the “MED (minimum effective dose in vivo)” value turned out to be 30 mg/kg.

Turning to `COc1ccc(CC(=O)N(Cc2ccc(C)cc2)C2CCN(C3CCCC3)CC2)cc1` [Compound 42ELH75, 2-(4-Methoxyphenyl)-N-(4-methylbenzyl)-N-(1-cyclopentylpiperidin-4-yl)acetamide], the “MED (minimum effective dose in vivo)” value was “≦10 mg/kg”.

Take `CCN1CCC(N(Cc2ccc(C)cc2)C(=O)Cc2ccc(OC)cc2)CC1` [Compound 42ELH80, 2-(4-Methoxyphenyl)-N-(4-methylbenzyl)-N-(1-ethylpiperidin-4-yl)acetamide]: the “MED (minimum effective dose in vivo)” value was “≦10 mg/kg”.

For the compound `COc1ccc(CC(=O)N(Cc2ccc(Cl)cc2)C2CCN(C(C)C)CC2)cc1` [Compound 42ELH90, 2-(4-Methoxyphenyl)-N-(4-chlorbenzyl)-N-(1-isopropylpiperidin-4-yl)acetamide], the “MED (minimum effective dose in vivo)” value is given as approximately 10 mg/kg.

As for `Cc1ccc(CN(C(=O)Cc2ccc(Cl)cc2)C2CCN(C(C)C)CC2)cc1` [Compound 47AKU-7, 2-(4-Chlorophenyl)-N-(4-methylbenzyl)-N-(1-isopropylpiperidin-4-yl)acetamide], the “MED (minimum effective dose in vivo)” value was “≦10 mg/kg”.

As to `Cc1ccc(CN(C(=O)Cc2ccc(Cl)cc2)C2CCN(C)CC2)cc1` [Compound 47AKU-8, 2-(4-Chlorophenyl)-N-(4-methylbenzyl)-N-(1-methylpiperidin-4-yl)-acetamide], the “MED (minimum effective dose in vivo)” value is reported as “≦10 mg/kg”.

Regarding `Cc1ccc(CN(C(=O)Cc2ccc(Cl)cc2)C2CCN(C3CCCC3)CC2)cc1` [Compound 47AKU-11, 2-(4-Chlorophenyl)-N-(4-methylbenzyl)-N-(1-cyclopentylpiperidin-4-yl)-acetamide], the “MED (minimum effective dose in vivo)” value is on record as approximately 10 mg/kg.

On to `CCN1CCC(N(Cc2ccc(C)cc2)C(=O)Cc2ccc(Cl)cc2)CC1` [Compound 47AKU-12, 2-(4-Chlorophenyl)-N-(4-methylbenzyl)-N-(1-ethylpiperidin-4-yl)acetamide], for which the “MED (minimum effective dose in vivo)” value is listed as “≦10 mg/kg”.

Take `Cc1ccc(CN(C(=O)Cc2ccccc2)C2CCN(C)CC2)cc1` [Compound 47AKU-13, 2-Phenyl-N-(4-methylbenzyl)-N-(1-methylpiperidin-4-yl)-acetamide]: the “MED (minimum effective dose in vivo)” value is “≦10 mg/kg”.

`Cc1ccc(CN(C(=O)Cc2ccc(F)cc2)C2CCN(C)CC2)cc1` [Compound 47AKU-14, 2-(4-Flourophenyl)-N-(4-methylbenzyl)-N-(1-methylpiperidin-4-yl)-acetamide]: the “MED (minimum effective dose in vivo)” value was “≦10 mg/kg”.

`Cc1ccc(CN(C(=O)Cc2ccc(Cl)cc2)C2CCN(CCO)CC2)cc1` [Compound 47AKU-18, 2-(4-Chlorophenyl)-N-(4-methylbenzyl)-N-(1-(2-hydroxyethyl)-piperidin-4-yl)-acetamide]: the “MED (minimum effective dose in vivo)” value is “≧10 mg/kg”.

Regarding `Cc1ccc(CN(C(=O)Cc2ccc(Cl)cc2)C2CCN(C3CCC3)CC2)cc1` [Compound 47AKU-19, 2-(4-Chlorophenyl)-N-(4-methylbenzyl)-N-(1-cyclobutylpiperidin-4-yl)-acetamide], the “MED (minimum effective dose in vivo)” value is more than 10 mg/kg.

Regarding `COc1ccc(CC(=O)N(Cc2ccc(C)cc2)C2CCN(C3CCC3)CC2)cc1` [Compound 47AKU-20, 2-(4-Methoxyphenyl)-N-(4-methylbenzyl)-N-(1-cyclobutylpiperidin-4-yl)acetamide], the “MED (minimum effective dose in vivo)” value is listed as “≦10 mg/kg”.

Consider `COc1ccc(CC(=O)N(Cc2ccc(C)cc2)C2CC3CCC(C2)N3C)cc1` (stereo not drawn) [Compound 47AKU-21, 2-(4-Methoxyphenyl)-N-(4-methylbenzyl)-N-(tropin-4-yl)acetamide], for which the “MED (minimum effective dose in vivo)” value was more than 10 mg/kg.

Turning to `Cc1ccc(CN(C(=O)NCc2ccccc2)C2CCN(C)CC2)cc1` [Compound 47AKU-22, N-(4-Methylbenzyl)-N-(1-methylpiperidin-4-yl)-N′-benzyl-carbamide], the “MED (minimum effective dose in vivo)” value is listed as “≦10 mg/kg”.

In the case of `CN1CCC(N(CCc2ccccc2)C(=O)NCc2ccccc2)CC1` [Compound 47AKU-25, N-Phenethyl-N-(1-methylpiperidin-4-yl)-N′-benzyl-carbamide], the “MED (minimum effective dose in vivo)” value is listed as more than 10 mg/kg.

Consider `COc1ccc(CNC(=O)N(Cc2ccc(C)cc2)C2CCN(C)CC2)cc1` [Compound 47AKU-44, N-(4-Methylbenzyl)-N-(1-methylpiperidin-4-yl)-′N′-(4-methoxybenzyl)-carbamide], for which the “MED (minimum effective dose in vivo)” value is recorded as “≦10 mg/kg”.

Regarding `COc1ccc(CC(=O)N(Cc2ccc(C)cc2)C2CCN(C(C)(C)C)CC2)cc1` [Compound 47AKU-49, 2-(4-Methoxyphenyl)-N-(4-methylbenzyl)-N-(1-t-butylpiperidin-4-yl)-acetamide], the “MED (minimum effective dose in vivo)” value was “≦10 mg/kg”.

As for `CN1CCC(N(Cc2ccc(F)cc2)C(=O)Cc2ccc(F)cc2)CC1` [Compound 50ELH6, 2-(4-Fluorophenyl)-N-(4-fluorobenzyl)-N-(1-methylpiperidin-4-yl)acetamide], the “MED (minimum effective dose in vivo)” value is given as “≦10 mg/kg”.

With `COc1ccc(CC(=O)N(CCCc2ccccc2)C2CCN(C)CC2)cc1` [Compound 50ELH65, 2-(4-Methoxyphenyl)-N-(3-phenyl-1-propyl)-N-(1-methylpiperidin-4-yl)acetamide], the “MED (minimum effective dose in vivo)” value is listed as “≦10 mg/kg”.

As for `COc1ccc(CC(=O)N(CCc2ccc(C)cc2)C2CCN(C)CC2)cc1` [Compound 50ELH68], the “MED (minimum effective dose in vivo)” value is on record as “≦10 mg/kg”.

`COc1ccc(CC(=O)N(CCc2ccc(F)cc2)C2CCN(C)CC2)cc1` [Compound 50ELH93A, 2-(4-Methoxyphenyl)-N-(2-4-(fluorophenyl)ethyl)-N-(1-methylpiperidin-4-yl)acetamide]: the “MED (minimum effective dose in vivo)” value is reported as “≦10 mg/kg”.

For `CCOc1ccc(CC(=O)N(Cc2ccc(C)cc2)C2CCN(C)CC2)cc1` [Compound 58AKU-4, 2-(4-Ethoxyphenyl)-N-(4-methylbenzyl)-N-(1-methylpiperidin-4-yl)acetamide], the “MED (minimum effective dose in vivo)” value was “≦10 mg/kg”.

Turning to `CCCCOc1ccc(CC(=O)N(Cc2ccc(C)cc2)C2CCN(C)CC2)cc1` [Compound 58AKU-5, 2-(4-Butoxyphenyl)-N-(4-methylbenzyl)-N-(1-methylpiperidin-4-yl)acetamide], the “MED (minimum effective dose in vivo)” value was “≦1 mg/kg”.

For `Cc1ccc(CN(C(=O)Cc2ccc(OC(C)C)cc2)C2CCN(C)CC2)cc1` [Compound 58AKU-6, 2-(4-i-Propoxyphenyl)-N-(4-methylbenzyl)-N-(1-methylpiperidin-4-yl)acetamide], the “MED (minimum effective dose in vivo)” value is recorded as “≦10 mg/kg”.

Regarding `CCOc1ccc(CC(=O)N(CCc2ccc(F)cc2)C2CCN(C)CC2)cc1` [Compound 63ELH20, 2-(4-ethoxyphenyl)-N-[2-(4-fluorophenyl)ethyl]-N-(1-methylpiperidin-4-yl)acetamide], the “MED (minimum effective dose in vivo)” value was “≦10 mg/kg”.

As to `CCOc1ccc(CC(=O)N(Cc2ccc(F)cc2)C2CCN(C)CC2)cc1` [Compound 63ELH21, 2-(4-Ethoxyphenyl)-N-(4-fluorobenzyl)-N-(1-methylpiperidin-4-yl)acetamide], the “MED (minimum effective dose in vivo)” value is recorded as “≦10 mg/kg”.

The subject of the next experiment is acoustic startle and prepulse inhibition in rats. Nature of the experiment: Startle testing, prepulse inhibition (PPI) in rats. It counts as in vivo. The following applies: rats; 0.5 mg/kg, s.c.
Excerpt: as §1
Rats were tested and groups (n=10) matched for levels of startle reactivity and prepulse inhibition (PPI; see Mansbach et al., (1988) Psychopharmacology 94:507-14). Two days later, test sessions started and consisted of a 5-min acclimation period with a constant background noise (65 dB), followed by 60 presentations of acoustic stimuli to measure acoustic startle responses. The 60 trials consisted of: twenty two 40-ms presentations of a 120 dB broadband pulse, ten 20-ms presentations of each prepulse intensity (68, 71, 77 dB) 100 ms prior to a 40-msec presentation of a 120 dB broadband pulse, and 8 NOSTIM trials in which no stimuli were delivered in order to assess general motor activation in the rats. Thirty min before testing, rats were treated with sterile water (s.c.), risperidone (1.0 mg/kg, i.p.), or AC-90179 (s.c.). Five min later, rats were administered DOI (0.5 mg/kg, s.c.) or 0.9% saline (s.c.). One-week later, rats were administered the same pretreatment drug or vehicle and crossed over to receive the treatment opposite to that they received the previous week. Startle magnitudes and percent PPI for the three prepulse intensities were calculated as described elsewhere (Bakshi, et al., (1994) J. Pharmacol. Exp. Ther. 271:787-94) and ANOVAs with repeated measures performed.
As to `COc1cc(CC(C)N)c(OC)cc1I` (stereo not drawn) [DOI, reference compound], the “effect on PPI” value is given as “significantly disrupted PPI”.

The same experiment, now with this note: rats; 3-way repeated measures ANOVA.
On to `Cc1nc2n(c(=O)c1CCN1CCC(c3noc4cc(F)ccc34)CC1)CCCC2` [risperidone], for which the “effect on startle magnitude” value is reported as “no effect on startle magnitude”.

Staying with this experiment, now noted: rats; DOI 0.5 mg/kg s.c.; AC-90179 s.c., risperidone 1.0 mg/kg i.p.
As to `Cc1nc2n(c(=O)c1CCN1CCC(c3noc4cc(F)ccc34)CC1)CCCC2` [risperidone], the “restoration of PPI in DOI-treated rats” value is “effective in restoring PPI in DOI-treated rats; also recorded: significant effects”.

Staying with this experiment, now noted: saline (vehicle)-treated rats; AC-90179 s.c., risperidone 1.0 mg/kg i.p.
For `Cc1nc2n(c(=O)c1CCN1CCC(c3noc4cc(F)ccc34)CC1)CCCC2` [risperidone], the “effect on PPI on its own” value is reported as “no effect on PPI by itself”.
